Data reported in the kinase profiling compilation of Christmann-Franck et al. (2016).

Legend:
Experiment in all cases: radiometric filter-binding kinase assay, Kinaseprofiler
FES (human) = FES (human) (UniProt P07332)
FGFR3 (human) = FGFR3 (human) (UniProt P22607)
FLT4 (human) = FLT4 (human) (UniProt P35916)
MERTK (human) = MERTK (human) (UniProt Q12866)
Chain of MERTK (human) (Q12866 whole entry, looked up): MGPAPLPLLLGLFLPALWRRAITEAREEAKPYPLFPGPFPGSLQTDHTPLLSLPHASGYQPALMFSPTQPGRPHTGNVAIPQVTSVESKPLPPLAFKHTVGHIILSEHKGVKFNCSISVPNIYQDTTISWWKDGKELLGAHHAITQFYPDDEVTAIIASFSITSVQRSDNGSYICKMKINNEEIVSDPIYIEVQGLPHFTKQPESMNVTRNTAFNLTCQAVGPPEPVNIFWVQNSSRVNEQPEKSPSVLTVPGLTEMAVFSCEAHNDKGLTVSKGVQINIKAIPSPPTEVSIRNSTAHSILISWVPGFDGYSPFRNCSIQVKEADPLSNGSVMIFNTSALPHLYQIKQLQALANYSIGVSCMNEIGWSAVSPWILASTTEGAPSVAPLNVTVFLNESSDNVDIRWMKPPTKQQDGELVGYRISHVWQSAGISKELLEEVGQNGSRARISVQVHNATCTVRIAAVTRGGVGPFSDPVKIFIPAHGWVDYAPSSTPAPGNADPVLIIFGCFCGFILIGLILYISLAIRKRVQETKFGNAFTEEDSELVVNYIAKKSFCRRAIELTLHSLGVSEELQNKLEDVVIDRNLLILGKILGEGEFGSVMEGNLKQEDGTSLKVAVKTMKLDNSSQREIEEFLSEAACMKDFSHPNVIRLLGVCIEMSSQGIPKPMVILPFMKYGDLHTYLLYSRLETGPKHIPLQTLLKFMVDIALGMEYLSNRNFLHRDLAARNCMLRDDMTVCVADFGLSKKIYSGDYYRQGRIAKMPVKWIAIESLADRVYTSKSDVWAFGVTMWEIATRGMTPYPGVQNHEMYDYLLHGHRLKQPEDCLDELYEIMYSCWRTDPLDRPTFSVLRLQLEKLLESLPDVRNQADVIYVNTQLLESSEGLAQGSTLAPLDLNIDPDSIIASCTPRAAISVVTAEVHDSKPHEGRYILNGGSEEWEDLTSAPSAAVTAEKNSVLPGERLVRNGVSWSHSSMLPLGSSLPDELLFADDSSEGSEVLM

Chain of FLT4 (human) (P35916 whole entry, looked up): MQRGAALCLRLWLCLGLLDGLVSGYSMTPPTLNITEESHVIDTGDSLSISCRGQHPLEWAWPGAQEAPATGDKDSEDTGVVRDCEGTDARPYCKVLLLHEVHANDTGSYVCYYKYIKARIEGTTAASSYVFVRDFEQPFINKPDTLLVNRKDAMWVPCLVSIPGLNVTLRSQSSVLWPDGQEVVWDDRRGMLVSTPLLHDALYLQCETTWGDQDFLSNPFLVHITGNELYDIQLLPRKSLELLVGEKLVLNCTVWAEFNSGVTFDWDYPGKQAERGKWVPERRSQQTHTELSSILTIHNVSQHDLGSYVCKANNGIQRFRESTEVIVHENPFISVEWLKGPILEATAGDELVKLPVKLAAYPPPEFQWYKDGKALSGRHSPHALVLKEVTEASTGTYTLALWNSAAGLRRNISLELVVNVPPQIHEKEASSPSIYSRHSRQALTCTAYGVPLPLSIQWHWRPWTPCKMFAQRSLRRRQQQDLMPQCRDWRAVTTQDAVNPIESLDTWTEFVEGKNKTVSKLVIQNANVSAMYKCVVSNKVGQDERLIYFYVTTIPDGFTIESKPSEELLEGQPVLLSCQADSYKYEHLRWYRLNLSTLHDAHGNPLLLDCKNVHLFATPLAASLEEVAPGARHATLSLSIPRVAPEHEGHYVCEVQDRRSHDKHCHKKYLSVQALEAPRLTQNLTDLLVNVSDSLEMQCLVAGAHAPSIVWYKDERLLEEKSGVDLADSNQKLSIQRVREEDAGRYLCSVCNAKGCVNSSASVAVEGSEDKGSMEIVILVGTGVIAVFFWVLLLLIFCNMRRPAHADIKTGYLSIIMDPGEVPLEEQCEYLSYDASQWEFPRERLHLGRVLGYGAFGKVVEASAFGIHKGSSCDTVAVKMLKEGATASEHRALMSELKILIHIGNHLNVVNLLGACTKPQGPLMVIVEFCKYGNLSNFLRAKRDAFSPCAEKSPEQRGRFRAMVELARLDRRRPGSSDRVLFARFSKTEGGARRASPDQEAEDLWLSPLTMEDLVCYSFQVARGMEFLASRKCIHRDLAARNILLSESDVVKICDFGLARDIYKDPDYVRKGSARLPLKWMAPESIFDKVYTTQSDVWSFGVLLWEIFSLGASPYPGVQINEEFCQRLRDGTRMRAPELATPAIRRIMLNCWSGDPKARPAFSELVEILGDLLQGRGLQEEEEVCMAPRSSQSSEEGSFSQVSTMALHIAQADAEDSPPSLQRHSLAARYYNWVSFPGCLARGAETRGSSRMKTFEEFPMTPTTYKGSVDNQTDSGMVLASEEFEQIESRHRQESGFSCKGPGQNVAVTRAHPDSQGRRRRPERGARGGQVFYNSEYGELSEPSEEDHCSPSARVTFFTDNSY
Chain of FES (human) (P07332 whole entry, looked up): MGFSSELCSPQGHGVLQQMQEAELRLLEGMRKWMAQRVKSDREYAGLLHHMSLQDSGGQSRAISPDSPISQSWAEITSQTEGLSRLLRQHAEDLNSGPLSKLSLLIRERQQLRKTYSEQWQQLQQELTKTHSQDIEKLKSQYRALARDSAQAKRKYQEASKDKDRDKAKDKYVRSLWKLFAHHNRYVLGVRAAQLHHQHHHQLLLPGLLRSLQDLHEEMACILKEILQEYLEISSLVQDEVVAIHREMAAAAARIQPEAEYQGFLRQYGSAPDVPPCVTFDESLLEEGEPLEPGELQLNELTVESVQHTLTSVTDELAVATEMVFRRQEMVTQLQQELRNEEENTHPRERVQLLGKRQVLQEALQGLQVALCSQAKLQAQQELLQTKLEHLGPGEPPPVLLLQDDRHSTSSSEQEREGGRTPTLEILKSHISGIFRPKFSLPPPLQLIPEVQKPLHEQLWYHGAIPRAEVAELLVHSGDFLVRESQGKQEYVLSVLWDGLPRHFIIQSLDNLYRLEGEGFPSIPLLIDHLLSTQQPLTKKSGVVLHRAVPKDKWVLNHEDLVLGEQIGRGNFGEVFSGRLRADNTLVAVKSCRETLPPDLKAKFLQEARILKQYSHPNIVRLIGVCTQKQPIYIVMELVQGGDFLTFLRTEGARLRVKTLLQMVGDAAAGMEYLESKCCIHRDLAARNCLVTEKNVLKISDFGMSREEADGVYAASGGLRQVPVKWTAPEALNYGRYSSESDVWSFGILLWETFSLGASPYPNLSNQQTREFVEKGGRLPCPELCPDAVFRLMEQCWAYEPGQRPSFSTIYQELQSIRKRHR
Chain of FGFR3 (human) (P22607 whole entry, looked up): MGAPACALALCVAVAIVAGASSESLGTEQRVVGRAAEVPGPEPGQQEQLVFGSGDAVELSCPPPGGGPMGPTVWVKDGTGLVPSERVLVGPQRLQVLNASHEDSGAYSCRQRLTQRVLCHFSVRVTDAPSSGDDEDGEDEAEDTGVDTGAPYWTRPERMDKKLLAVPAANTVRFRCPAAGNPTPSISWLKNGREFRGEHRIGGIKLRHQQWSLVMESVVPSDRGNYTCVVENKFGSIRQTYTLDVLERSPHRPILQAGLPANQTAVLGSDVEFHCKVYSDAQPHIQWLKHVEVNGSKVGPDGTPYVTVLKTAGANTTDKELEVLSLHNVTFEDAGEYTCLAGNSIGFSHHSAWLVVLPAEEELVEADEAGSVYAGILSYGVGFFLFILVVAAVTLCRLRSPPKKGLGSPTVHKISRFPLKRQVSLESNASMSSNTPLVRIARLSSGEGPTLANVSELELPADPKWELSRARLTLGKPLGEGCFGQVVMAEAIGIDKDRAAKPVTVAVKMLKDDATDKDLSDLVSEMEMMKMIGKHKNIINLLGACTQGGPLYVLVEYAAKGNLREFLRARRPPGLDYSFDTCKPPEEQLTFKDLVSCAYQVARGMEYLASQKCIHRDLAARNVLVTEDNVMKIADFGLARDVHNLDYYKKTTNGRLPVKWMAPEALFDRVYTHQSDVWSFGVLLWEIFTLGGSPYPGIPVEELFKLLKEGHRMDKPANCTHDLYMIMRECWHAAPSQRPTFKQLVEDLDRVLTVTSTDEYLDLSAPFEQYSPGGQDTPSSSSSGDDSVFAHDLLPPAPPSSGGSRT

In the case of Cn1cc(-c2cnc3ccc4ccc(CS(=O)(=O)NCc5ccccn5)cc4c(=O)c3c2)cn1, the IC50 (FES (human)) is reported as greater than 10 µM, the IC50 (FGFR3 (human)) is reported as 1000 nM and the IC50 (FLT4 (human)) is reported as 920 nM. For the same molecule, the IC50 (MERTK (human)) was 880 nM.
